Reference: article PMC9820345, “Metal Complexes of a 5-Nitro-8-Hydroxyquinoline-Proline Hybrid with Enhanced Water Solubility Targeting Multidrug Resistant Cancer Cells” (International Journal of Molecular Sciences, 2022)

Key:
[1] = Stability of the isolated complexes in aqueous solution at pH 7.4 (UV-vis over 72 h); type: physicochemical
Experimental: The stability of the isolated RhCp* and RuCym complexes in aqueous solution at pH 7.4 was assayed via recording the UV-vis spectra over 72 h (Figure S18). […] Then, the behaviour of the complexes was monitored between pH 2 and 12 by ^1H NMR spectroscopy (see representative spectra of the RuCym complex in Figure 8) in chloride-free medium, as this halide ion can act as a competitor ligand. There was no indication for the dissociation of the complexes (i.e., liberation of unbound ligand or metal precursor) in the studied pH range or even at pH 1 (Figure S19), showing their fairly high stability in solution.
An Agilent Cary 8454 diode array spectrophotometer (Santa Clara, CA, USA) was used to obtain UV-vis spectra in the wavelength range 200–1000 nm, while spectra were recorded for the Fe(II)-containing samples using an Avantes (Avantes B.V., Apeldoorn, The Nederlands) AvaSpec-ULS2048CL-EVO spectrometer with an AvaLight-DHc light source and FDP-7UVIR200-2-VAR transmission dip probe. The titrations for the Fe(II)-containing samples were performed in a laboratory glove box (GP(Campus), Jacomex) (O2 content ≤ 1 ppm). The path length (ℓ) was 1 cm in most cases (the actual ℓ is always indicated in the legends of the figures). The concentrations of the ligands and complexes were between 40 and 200 µM, and 0.2 M KNO3 for the organometallic complexes or 0.1 M KCl for the Fe(II/III), Cu(II), and Zn(II) complexes were used to adjust the constant ionic strength. For HSA containing samples, complex concentrations were 50 µM, and 0.5, and 2 equiv. biomolecules were added for kinetic studies, respectively. For HSA model containing samples, complex concentrations were 50 µM, and the model concentrations were 0–150 µM and 0–500 µM, respectively, and the pH was 7.4 (PBS’). Spectra were always background and baseline corrected. The computer program HypSpec was used to obtain stability constants. Hydrolysis constants of the Fe(III), Fe(II), RuCym, and RhCp* species were included in the speciation models (see Table S4 with the data taken from References).

[2] = at 1 μM concentration; pH 7.4
Experimental: Thus, a ligand displacement study was performed spectrophotometrically using 2,2’-bipyridine as the competitor (Figure S21) to determine the stability constant for the RhCp* complex at pH 7.4.
SUPPLEMENTARY INFORMATION
Figure S 20. UV-vis spectr a recorded for the (a) RhCp* − HQNO2-L-Pro (1:1) and (b) RuCym −
HQNO2-L-Pro (1:1) systems at different times at pH 1. Absorbance values plotted against the time
measured in the (c) RhCp* − HQNO2-L-Pro (1:1) at 435 nm, and (d) RuCym − HQNO2-L-Pro (1:1) at
410 nm at pH 1 and 4 (indicated in the figure). { cligand = 50 μM; cRhCp* or RuCym = 50 μM; l = 1 cm; t =
Figure S 21. (a) UV -vis spectra of the R hCp*-HQNO2-L-Pro complex at various equivalents of 2,2’ -
bipyridine at pH 7.4 after 24 h waiting time and (b) the measured absorbance values at 4 35 nm plotted
against the 2,2’-bipyridine:complex ratio.
complex taken from Ref. [74]. {ccomplex = 50 μM; PBS’ buffer; l = 1 cm; t = 25.0 °C}
c (2,2'-bipyridine) / c (complex) […]

[3] = target: T1, HSA (Homo sapiens, UniProt P02768); assay: Time course of complex-HSA interaction (UV-vis); type: binding; settings: complex–HSA (1:1 or 2:1); pH 7.4
T1 construct: purchased Sigma-Aldrich (Darmstadt, Germany) A8763
Experimental: First, changes in the UV-vis spectra were followed in time in the complex—HSA (1:1 or 2:1) system, and it was concluded that the equilibrium can be reached within ca. 30 min for the RhCp* complex (Figure S25). […] The binding of the RuCym complex to HSA without the release of the bidentate ligand was also confirmed by CZE measurement (Figure S27). Most likely a donor atom of the protein binds at the coordination site of the co-ligand.
(§1) An Agilent Cary 8454 diode array spectrophotometer (Santa Clara, CA, USA) was used to obtain UV-vis spectra in the wavelength range 200–1000 nm, while spectra were recorded for the Fe(II)-containing samples using an Avantes (Avantes B.V., Apeldoorn, The Nederlands) AvaSpec-ULS2048CL-EVO spectrometer with an AvaLight-DHc light source and FDP-7UVIR200-2-VAR transmission dip probe. The titrations for the Fe(II)-containing samples were performed in a laboratory glove box (GP(Campus), Jacomex) (O2 content ≤ 1 ppm). The path length (ℓ) was 1 cm in most cases (the actual ℓ is always indicated in the legends of the figures). The concentrations of the ligands and complexes were between 40 and 200 µM, and 0.2 M KNO3 for the organometallic complexes or 0.1 M KCl for the Fe(II/III), Cu(II), and Zn(II) complexes were used to adjust the constant ionic strength. […]

[4] = Aqueous solubility at physiological pH (S7.4); type: physicochemical; settings: water, pH 7.4, aqueous buffer
[5] = Formation constants of Zn(II) complexes by UV-vis spectrophotometric titrations; type: physicochemical; settings: I = 0.1 M KCl, 25.0 °C, data evaluated at pH < 8
Experimental: Complexation of HQNO2-L-Pro with Zn(II) was studied by UV-vis and ^1H NMR spectroscopy (Figure 6). Comparing the UV-vis spectra recorded for the ligand in the presence and in the absence of Zn(II) with increasing pH, complex formation was evident from the UV-vis spectral changes at pH < ~8; however, in the basic pH range the spectra resembled more and more those of the free ligand. Based on the spectra recorded at pH < 8, formation constants for species [Zn(HL)]^+ and [Zn(HL)2] were determined (Table 2).
as §1

T1 sequence (P02768 25-609): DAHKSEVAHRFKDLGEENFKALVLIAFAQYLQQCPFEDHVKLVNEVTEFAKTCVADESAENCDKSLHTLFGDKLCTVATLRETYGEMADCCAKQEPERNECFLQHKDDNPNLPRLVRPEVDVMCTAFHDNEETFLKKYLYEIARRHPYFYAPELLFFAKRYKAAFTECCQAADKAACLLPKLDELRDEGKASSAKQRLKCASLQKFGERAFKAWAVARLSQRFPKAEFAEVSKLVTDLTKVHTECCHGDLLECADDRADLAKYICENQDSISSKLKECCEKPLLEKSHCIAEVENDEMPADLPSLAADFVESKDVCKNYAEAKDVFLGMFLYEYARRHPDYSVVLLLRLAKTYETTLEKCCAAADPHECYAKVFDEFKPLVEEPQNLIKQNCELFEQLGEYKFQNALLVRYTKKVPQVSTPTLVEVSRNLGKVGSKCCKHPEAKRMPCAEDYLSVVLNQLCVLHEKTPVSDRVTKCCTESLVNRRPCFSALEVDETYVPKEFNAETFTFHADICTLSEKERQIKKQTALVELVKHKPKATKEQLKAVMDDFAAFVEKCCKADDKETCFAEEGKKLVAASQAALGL

Row | Compound | UV-vis spectral changes in aqueous solution ([1]; first 24 h) | UV-vis spectral changes in aqueous solution ([1]; after 48 h) | dissociation of the complex expected [2] [%] | time to reach equilibrium with HSA [3] [min] | solubility [4] [mM] | logβ [M(HL)2] [5] | logβ [M(HL)] [5]
1 | Cc1ccc(C(C)C)cc1.O=C(O)[C@@H]1CCC[NH+]1Cc1cc([N+](=O)[O-])c2ccc[n+]3c2c1[O][Ru-]3[Cl].[Cl-] [RuCym-HQNO2-L-Pro, [RuCym(HQNO2-L-Pro)Cl]Cl] | no measurable changes |  |  |  |  |  | 
2 | CC1=C(C)[C](C)([Rh]([Cl])[O]c2c(C[NH+]3CCC[C@H]3C(=O)O)cc([N+](=O)[O-])c3cccnc23)C(C)=C1C.[Cl-] [RhCp*-HQNO2-L-Pro, [RhCp*(HQNO2-L-Pro)Cl]Cl] | no measurable changes | minor spectral change | < 1 | ≤ 30 |  |  | 
3 | O=C(O)[C@@H]1CCCN1Cc1cc([N+](=O)[O-])c2cccnc2c1O [HQNO2-L-Pro, (2S)-1-((8-hydroxy-5-nitroquinolin-7-yl)methyl)pyrrolidin-1-ium-2-carboxylate] |  |  |  |  | > 10 | 33.71 ± 0.06 | 17.36 ± 0.03
